Laboratory results: the NIST ThermoML archive (doi:10.1021/acs.jced.9b00179)
Numbers after ± are expanded uncertainties.

Experiments:
[1] = refractive index (Na D-line) (dimensionless); settings: 293.15 K; 101.33 kPa; Liquid; Standard Abbe refractometry
[2] = Molar enthalpy of transition or fusion; settings: Crystal; DSC
[3] = Crystal; DSC

SMILES	refractive index [1]	Molar enthalpy of transition or fusion [2]	Triple point temperature [3]
CC(C)CO [2-methyl-1-propanol]	1.3957 ± 0.0011	–	–
O=C(O)c1ccccc1 [benzoic acid]	–	17.5 ± 1.8 kJ/mol	396.8 ± 1 K
CCCCO [butan-1-ol]	1.3986 ± 0.0011	–	–
CCC(C)=O [butanone]	1.379 ± 0.0011	–	–
C[S+](C)[O-] [dimethyl sulfoxide]	1.4791 ± 0.0011	–	–
CN(C)C=O [dimethylformamide]	1.4303 ± 0.001	–	–
CCO [ethanol]	1.3613 ± 0.0011	–	–
CCCC(C)=O [pentan-2-one]	1.3892 ± 0.0011	–	–
CC[C@@H]([C@H](C)O)n1ncn(-c2ccc(N3CCN(c4ccc(OC[C@@H]5CO[C@@](Cn6cncn6)(c6ccc(F)cc6F)C5)cc4)CC3)cc2)c1=O [posaconazole]	–	47.7 ± 4.9 kJ/mol	444.6 ± 1 K

Now from value to compound:

refractive index [1]	Molar enthalpy of transition or fusion [2]	Triple point temperature [3]	SMILES
1.3852 ± 0.001	–	–	CCCO [propan-1-ol]
1.3774 ± 0.0011	–	–	CC(C)O [propan-2-ol]
–	26.9 ± 2.7 kJ/mol	403.4 ± 1 K	C[C@@H](c1ncncc1F)[C@](O)(Cn1cncn1)c1ccc(F)cc1F [voriconazole]
1.3331 ± 0.001	–	–	O [water]
